The target in series [1] is T1, COX-1 (Ovis aries, UniProt P05979).
T1 construct: Purified COX-1 from ram seminal vesicles; purchased Cayman Chemicals; host or cells: ram seminal vesicles (tissue-purified)
T1 sequence (P05979 25-600): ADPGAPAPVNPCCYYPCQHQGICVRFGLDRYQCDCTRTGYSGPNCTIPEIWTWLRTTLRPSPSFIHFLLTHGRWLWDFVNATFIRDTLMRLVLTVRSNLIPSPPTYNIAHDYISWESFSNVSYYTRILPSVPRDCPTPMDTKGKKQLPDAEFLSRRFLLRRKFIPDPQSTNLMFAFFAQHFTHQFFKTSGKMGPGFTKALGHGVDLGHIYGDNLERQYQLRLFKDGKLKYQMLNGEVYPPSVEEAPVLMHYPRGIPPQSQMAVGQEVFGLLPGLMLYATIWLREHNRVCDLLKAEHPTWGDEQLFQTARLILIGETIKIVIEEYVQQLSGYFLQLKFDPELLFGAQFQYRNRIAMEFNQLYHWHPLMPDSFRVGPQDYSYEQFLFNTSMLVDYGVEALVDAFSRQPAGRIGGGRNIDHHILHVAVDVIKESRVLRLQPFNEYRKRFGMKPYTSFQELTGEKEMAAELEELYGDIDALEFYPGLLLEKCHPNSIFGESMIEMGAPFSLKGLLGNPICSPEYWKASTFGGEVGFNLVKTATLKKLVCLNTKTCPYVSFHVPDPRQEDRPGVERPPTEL
In words: Inhibition of purified COX-1 activity in vitro (PGE2 by enzymo-immunoassay). The format is biochemical, ram. The following applies: concentration 1 μM; for % COX-1 inhibition: negative sign = inhibition. As to the method: (§1) Example compounds according to the invention were tested for their ability to inhibit COX-1 and/or COX-2 activities in vitro. Purified COX-1 from ram seminal vesicles and purified COX-2 from ewe placenta (both from Cayman Chemicals) were incubated for 10 minutes at 25° C. in the presence of their substrate, arachidonic acid (5 μM), with or without test compounds or standard inhibitors. Prostaglandin E2, the reaction product, was measured by enzymo-immunoassay (R&D Systems). Each individual value results from duplicate determinations. Final inhibition data are means±standard errors of at least (3) independent experiments performed on as many different days.

Series [2] deals with T2, COX-2 (Ovis aries, UniProt P79208).
T2 construct: purified COX-2 from ewe placenta; purchased Cayman Chemicals; host or cells: ewe placenta (tissue-purified)
T2 sequence (P79208 17-603): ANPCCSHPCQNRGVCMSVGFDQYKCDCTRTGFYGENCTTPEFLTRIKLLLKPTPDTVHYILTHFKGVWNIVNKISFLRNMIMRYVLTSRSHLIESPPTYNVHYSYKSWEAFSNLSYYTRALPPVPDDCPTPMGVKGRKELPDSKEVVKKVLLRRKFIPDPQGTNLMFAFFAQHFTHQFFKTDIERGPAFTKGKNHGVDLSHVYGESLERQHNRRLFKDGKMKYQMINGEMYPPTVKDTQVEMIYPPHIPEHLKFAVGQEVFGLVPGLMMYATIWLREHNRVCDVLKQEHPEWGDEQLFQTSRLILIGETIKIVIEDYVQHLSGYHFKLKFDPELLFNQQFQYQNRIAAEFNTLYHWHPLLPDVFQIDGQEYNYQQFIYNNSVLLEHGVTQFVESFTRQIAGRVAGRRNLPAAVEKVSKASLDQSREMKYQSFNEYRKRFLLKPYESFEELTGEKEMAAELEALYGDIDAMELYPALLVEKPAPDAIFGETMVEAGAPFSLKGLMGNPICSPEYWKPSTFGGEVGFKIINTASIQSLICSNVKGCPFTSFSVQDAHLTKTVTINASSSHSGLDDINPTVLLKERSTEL
The series can be described thus: Inhibition of purified COX-2 activity in vitro (PGE2 by enzymo-immunoassay). Conditions: for selective inhibition of COX-2 (in words) / inhibition at 1 µM: concentration 1 μM; for inhibition at 1 µM: read-out: % COX-2 inhibition; for COX-2 inhibitory potency compared with nimesulide (in words): same concentration, 1 μM. The format is biochemical, ewe. On the procedure: as §1

Series [3] addresses T3, Cox-2 (Homo sapiens, UniProt P35354).
T3 sequence (P35354 18-604): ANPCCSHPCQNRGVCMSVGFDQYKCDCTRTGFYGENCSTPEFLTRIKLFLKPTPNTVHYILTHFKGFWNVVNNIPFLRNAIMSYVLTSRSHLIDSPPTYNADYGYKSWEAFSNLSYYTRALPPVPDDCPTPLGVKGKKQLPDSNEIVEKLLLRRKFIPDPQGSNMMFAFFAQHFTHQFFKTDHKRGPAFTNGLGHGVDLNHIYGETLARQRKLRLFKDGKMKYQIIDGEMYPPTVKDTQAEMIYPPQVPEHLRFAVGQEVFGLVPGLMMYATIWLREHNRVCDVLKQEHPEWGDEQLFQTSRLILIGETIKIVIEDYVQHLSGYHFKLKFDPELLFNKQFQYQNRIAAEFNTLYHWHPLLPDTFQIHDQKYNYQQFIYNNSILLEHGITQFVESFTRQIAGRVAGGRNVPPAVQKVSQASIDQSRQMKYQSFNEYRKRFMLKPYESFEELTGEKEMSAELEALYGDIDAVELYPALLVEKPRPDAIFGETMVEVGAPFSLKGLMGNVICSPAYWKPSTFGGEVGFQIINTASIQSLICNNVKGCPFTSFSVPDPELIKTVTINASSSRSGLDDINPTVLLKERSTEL
Conditions: literature; cited from earlier work.

Series [4] deals with cyclooxygenase-1 (Homo sapiens, UniProt P23219). Conditions: literature; cited from earlier work.
Chain of cyclooxygenase-1 (P23219 24-599, species assumed): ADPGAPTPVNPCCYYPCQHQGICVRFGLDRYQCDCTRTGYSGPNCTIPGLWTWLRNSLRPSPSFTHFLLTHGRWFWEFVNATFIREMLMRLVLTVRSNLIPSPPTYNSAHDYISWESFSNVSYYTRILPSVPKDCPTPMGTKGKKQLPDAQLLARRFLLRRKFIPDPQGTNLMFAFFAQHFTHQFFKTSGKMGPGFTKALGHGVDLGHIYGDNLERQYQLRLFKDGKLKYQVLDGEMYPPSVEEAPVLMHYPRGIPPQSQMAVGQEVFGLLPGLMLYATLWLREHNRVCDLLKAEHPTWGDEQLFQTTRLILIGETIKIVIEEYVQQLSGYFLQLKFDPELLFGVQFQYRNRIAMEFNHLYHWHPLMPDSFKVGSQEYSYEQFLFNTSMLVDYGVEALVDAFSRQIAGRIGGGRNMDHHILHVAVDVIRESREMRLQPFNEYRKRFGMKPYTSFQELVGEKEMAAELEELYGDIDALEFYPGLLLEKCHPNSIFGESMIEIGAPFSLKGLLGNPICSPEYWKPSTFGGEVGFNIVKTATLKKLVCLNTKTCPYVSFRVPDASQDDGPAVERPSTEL
For series [5], the target named is T4, cyclooxygenase-2 (Homo sapiens, UniProt P35354).
T4 sequence (P35354 18-604): T3 sequence (P35354 18-604)
Conditions: literature; cited from earlier work.

One may read the inhibition as the percentage by which the read-out fell short of the control. In general, melting point refers to the temperature, or range, at which the solid turns liquid.

Take `COc1ccc(-n2nc(C(F)(F)F)nc2-c2ccc(S(C)(=O)=O)cc2)cc1` [Example 17, 1-(4-methoxy-phenyl)-5-(4-methylsulfonyl-phenyl)-3-trifluoromethyl-1H-1,2,4-triazole]: the melting point was 156 °C. For the same compound, in series [1], the “inhibition of COX-1 (in words)” value is listed as “did not show any significant inhibition of COX-1” and the “% COX-1 inhibition” value is listed as “+8 ± 2.7%”. Also, in series [2], the “selective inhibition of COX-2 (in words)” value is recorded as “able to inhibit COX-2 selectively”, the inhibition at 1 µM worked out at 44 ± 6.8% and the “COX-2 inhibitory potency compared with nimesulide (in words)” value is recorded as “even more potent”.

As for `CS(=O)(=O)c1ccc(-c2nc(C(F)(F)F)nn2-c2ccc(Br)cc2)cc1` [Example 18, 1-(4-bromo-phenyl)-5-(4-methylsulfonyl-phenyl)-3-trifluoromethyl-1H-1,2,4-triazole], the melting point came to 198 °C. Further, in series [1], the “inhibition of COX-1 (in words)” value is “did not show any significant inhibition of COX-1” and the “% COX-1 inhibition” value is given as −5 ± 12%. For the same compound, in series [2], the “selective inhibition of COX-2 (in words)” value is listed as “able to inhibit COX-2 selectively”, the inhibition at 1 µM was found to be 53% and the “COX-2 inhibitory potency compared with nimesulide (in words)” value is “even more potent”. For the same compound, the “COX-2 potency relative to nimesulide” value in series [2] (same inhibition at 1 μM vs. 10 μM nimesulide) was “about 10 times”.

In turn, `CS(=O)(=O)Nc1ccc(-n2nc(C(F)(F)F)nc2-c2ccc(S(C)(=O)=O)cc2)cc1` [Example 25, 1-(4-methylsulfonylamino-phenyl)-5-(4-methylsulfonyl-phenyl)-3-trifluoromethyl-1H-1,2,4-triazole] gave a melting point of 188 °C. Besides, in series [1], the “inhibition of COX-1 (in words)” value was “did not show any significant inhibition of COX-1” and the “% COX-1 inhibition” value is listed as −5 ± 9%. In series [2], the “selective inhibition of COX-2 (in words)” value is “able to inhibit COX-2 selectively” and the inhibition at 1 µM turned out to be 31 ± 10%.

For `Fc1ccc(-c2nc(C(F)(F)F)nn2-c2ccc(Cl)cc2)cc1` [compound (a)], the “Cox-2 inhibitory activity (in words)” value in series [3] is recorded as “moderate Cox-2 inhibitory activity”.

For `CS(=O)(=O)c1ccc(-c2nc(C#N)nn2-c2ccc(F)cc2)cc1` [compound (b)], the “inhibition of cyclooxygenase-1 (in words)” value in series [4] was “weak and non selective inhibitors”. Also, the “inhibition of cyclooxygenase-2 (in words)” value in series [5] was “weak and non selective inhibitors”.

Source of the values: patent publication US6803380B1, “5-aryl-1h-1,2,4-triazole compounds as inhibitors of cyclooxygenase-2 and pharmaceutical compositions containing them” (Laboratoire Theramex, priority 1999, dated 2004).
